In US20240390340A1 (INCYTE CORPORATION, priority 2023, published 2024):

Legend:
KRAS G12D = KRAS G12D (Homo sapiens, UniProt P01116, G12D); assay: GDP-GTP exchange assay (bodipy-GDP/GppNHp, SOS1), KRAS G12D; type: biochemical; settings: bodipy-loaded KRAS G12D 2.5 nM, 4 h pre-incubation; value for the most potent isomer quoted for certain compounds; read-out: G12D (KRAS G12D exchange assay IC50)
KRAS G12V = KRAS G12V (Homo sapiens, UniProt P01116, G12V); assay: GDP-GTP exchange assay (bodipy-GDP/GppNHp, SOS1), KRAS G12V; type: biochemical; settings: KRAS G12V mutant; value for the most potent isomer quoted for certain compounds; read-out: G12V (KRAS G12V exchange assay IC50)
Sequence of KRAS G12V (P01116 1-188 isoform P01116-2 G12V): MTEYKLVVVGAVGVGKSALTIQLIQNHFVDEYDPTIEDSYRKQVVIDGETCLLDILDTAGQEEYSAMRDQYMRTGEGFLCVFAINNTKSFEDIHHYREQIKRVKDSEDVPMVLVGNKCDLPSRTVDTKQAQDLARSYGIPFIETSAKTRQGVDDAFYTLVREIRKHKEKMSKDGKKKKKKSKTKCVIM

Sequence of KRAS G12D (P01116 1-188 isoform P01116-2 G12D): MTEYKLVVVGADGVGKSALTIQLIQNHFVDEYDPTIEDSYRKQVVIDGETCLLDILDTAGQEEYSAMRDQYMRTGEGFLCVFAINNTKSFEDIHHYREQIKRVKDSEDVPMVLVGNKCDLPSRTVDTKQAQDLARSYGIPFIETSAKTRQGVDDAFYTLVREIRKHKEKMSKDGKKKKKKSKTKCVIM

Row | IC50 (KRAS G12D) [nM] | IC50 (KRAS G12V) [nM] | Compound
1 | ≤ 100 | ≤ 100 | Cc1cc(F)ncc1O[C@H]1C[C@H](c2cc3c(C)nc4c(F)c(-c5cccc(Cl)c5Cl)c(CCC#N)cc4c3n2[C@H]2[C@H]3CN[C@@H]2C3)N(C(=O)C2CC2)C1 [Example 283]
2 | ≤ 100 | ≤ 100 | Cc1nc2c(F)c(-c3cccc(Cl)c3Cl)c(CCC#N)cc2c2c1cc([C@H]1C[C@H](OC[C@@H]3CCOC3)CN1C(=O)C1CC1)n2[C@H]1[C@H]2CN[C@@H]1C2 [Example 373]
3 | ≤ 100 | ≤ 100 | Cc1nc2c(F)c(-c3cccc(Cl)c3Cl)c(CCC#N)cc2c2c1cc([C@H]1C[C@H](Oc3cnn(C(F)F)c3)[C@@H](C)N1C(=O)C1CC1)n2[C@H]1[C@H]2CN[C@@H]1C2 [Example 214]
4 | ≤ 100 | ≤ 100 | Cc1nc2c(F)c(-c3cccc(Cl)c3Cl)c(CCC#N)cc2c2c1cc([C@H]1C[C@H](OCc3cccc(S(C)(=O)=O)c3)CN1C(=O)C1CC1)n2[C@H]1[C@H]2CN[C@@H]1C2 [Example 164]
5 | ≤ 100 | ≤ 100 | CO[C@H]1CC[C@@H](O[C@H]2C[C@H](c3cc4c(C)nc5c(F)c(-c6cccc(Cl)c6Cl)c(CCC#N)cc5c4n3[C@H]3[C@H]4CN[C@@H]3C4)N(C(=O)C3CC3)C2)C1 [Example 439]
6 | ≤ 100 | ≤ 100 | Cc1nc2c(F)c(-c3cccc(Cl)c3Cl)c(CCC#N)cc2c2c1cc([C@H]1C[C@H](OCc3nsc4ccccc34)CN1C(=O)C1CC1)n2[C@H]1[C@H]2CN[C@@H]1C2 [Example 255]
7 | 100 to 1000 | ≤ 100 | N#CCCc1cc2c(nc(-c3ccc(N4CCOCC4)nc3)c3cc([C@H]4C[C@H](OCc5c(F)cccc5F)CN4C(=O)C4CC4)n([C@H]4[C@H]5CN[C@@H]4C5)c32)c(F)c1-c1cccc(Cl)c1Cl [Example 206]
8 | ≤ 100 | ≤ 100 | Cc1nc2c(F)c(-c3cccc(Cl)c3Cl)c(CCC#N)cc2c2c1cc([C@H]1C[C@H](OCc3cnn(C)n3)CN1C(=O)C1CC1)n2[C@H]1[C@H]2CN[C@@H]1C2 [Example 105]
9 | ≤ 100 | ≤ 100 | Cc1nc2c(F)c(-c3cccc(Cl)c3Cl)c(CCC#N)cc2c2c1cc([C@H]1C[C@H](OC(C)c3ncco3)CN1C(=O)C1CC1)n2[C@H]1[C@H]2CN[C@@H]1C2 (some centres unmarked) [Example 228]
10 | ≤ 100 | ≤ 100 | Cc1nc(CO[C@H]2C[C@H](c3cc4c(C)nc5c(F)c(-c6cccc(Cl)c6Cl)c(CCC#N)cc5c4n3[C@H]3[C@H]4CN[C@@H]3C4)N(C(=O)C3(C)CC3)C2)cs1 [Example 128]
11 | ≤ 100 | ≤ 100 | Cc1nc2c(F)c(-c3cccc(Cl)c3Cl)c(CCC#N)cc2c2c1cc([C@H]1C[C@H](n3cc(C#N)nn3)CN1C(=O)C1CC1)n2[C@H]1[C@H]2CN[C@@H]1C2 [Example 345]
12 | ≤ 100 | ≤ 100 | CC(O)c1nc2c(F)c(-c3cccc(Cl)c3Cl)c(CCC#N)cc2c2c1cc([C@H]1C[C@H](OCc3ccc(F)cc3C#N)CN1C(=O)C1CC1)n2[C@H]1[C@H]2CN[C@@H]1C2 (some centres unmarked) [Example 178]
13 | ≤ 100 | ≤ 100 | C[C@@H](O)c1nc2c(F)c(-c3cccc(Cl)c3Cl)c(CCC#N)cc2c2c1cc([C@H]1[C@@H](F)[C@H](Oc3ccccn3)CN1C(=O)C1CC1)n2[C@H]1[C@H]2CN[C@@H]1C2 [Example 85]
14 | ≤ 100 | ≤ 100 | Cc1nc2c(F)c(-c3cccc(Cl)c3Cl)c(CCC#N)cc2c2c1cc([C@H]1C[C@H](Oc3cccnc3OCC(F)(F)F)CN1C(=O)C1CC1)n2[C@H]1[C@H]2CN[C@@H]1C2 [Example 446]
15 | ≤ 100 | ≤ 100 | Cc1nc2c(F)c(-c3cccc(Cl)c3Cl)c(CCC#N)cc2c2c1cc([C@H]1C[C@H](Oc3cccnc3OC(C)C)CN1C(=O)C1CC1)n2[C@H]1[C@H]2CN[C@@H]1C2 [Example 444]
16 | ≤ 100 | ≤ 100 | Cc1nc2c(F)c(-c3cccc(Cl)c3Cl)c(CCC#N)cc2c2c1cc([C@H]1C[C@H](n3ccc(CC#N)n3)CN1C(=O)C1CC1)n2[C@H]1[C@H]2CN[C@@H]1C2 [Example 316]
17 | ≤ 100 | ≤ 100 | Cc1nc2c(F)c(-c3cccc(Cl)c3Cl)c(CCC#N)cc2c2c1cc([C@H]1C[C@H](n3cc([C@]45C[C@H](CN4)C5)nn3)CN1C(=O)C1CC1)n2[C@H]1[C@H]2CN[C@@H]1C2 [Example 274]
18 | ≤ 100 | ≤ 100 | Cc1nc2c(F)c(-c3cccc(Cl)c3Cl)c(CCC#N)cc2c2c1cc([C@H]1C[C@H](n3cc(CCC(=O)O)nn3)CN1C(=O)C1CC1)n2[C@H]1[C@H]2CN[C@@H]1C2 [Example 322]
19 | ≤ 100 | ≤ 100 | CCOc1ncccc1O[C@H]1C[C@H](c2cc3c(C)nc4c(F)c(-c5cccc(Cl)c5Cl)c(CCC#N)cc4c3n2[C@H]2[C@H]3CN[C@@H]2C3)N(C(=O)C2CC2)C1 [Example 443]
20 | ≤ 100 | ≤ 100 | COc1ccnc(O[C@H]2C[C@H](c3cc4c(C)nc5c(F)c(-c6cccc(Cl)c6Cl)c(CCC#N)cc5c4n3[C@H]3[C@H]4CN[C@@H]3C4)N(C(=O)C3CC3)C2)n1 [Example 247]

Row | IC50 (KRAS G12D) [nM] | IC50 (KRAS G12V) [nM] | Compound
21 | ≤ 100 | 100 to 1000 | Cc1nc2c(F)c(-c3cccc(Cl)c3Cl)c(CCC#N)cc2c2c1cc([C@H]1C[C@H](n3c(=O)n(C)c4ccccc43)CN1C(=O)C1CC1)n2[C@H]1[C@H]2CN[C@@H]1C2 [Example 321]
22 | ≤ 100 | ≤ 100 | Cc1nc2c(F)c(-c3cccc(Cl)c3Cl)c(CCC#N)cc2c2c1cc([C@H]1C[C@H](OCc3cc(C(F)(F)F)on3)CN1C(=O)C1CC1)n2[C@H]1[C@H]2CN[C@@H]1C2 [Example 361]
23 | ≤ 100 | ≤ 100 | Cc1nc2c(F)c(-c3cccc(Cl)c3Cl)c(CCC#N)cc2c2c1cc([C@H]1C[C@H](OCc3nccs3)C(C)(C)N1C(=O)C1CC1)n2[C@H]1[C@H]2CN[C@@H]1C2 [Example 405]
24 | ≤ 100 | ≤ 100 | CN1CCC(c2nc3c(F)c(-c4cccc(Cl)c4Cl)c(CCC#N)cc3c3c2cc([C@H]2C[C@H](OCc4c(F)cccc4F)CN2C(=O)C2CC2)n3[C@H]2[C@H]3CN[C@@H]2C3)CC1 [Example 236]
25 | ≤ 100 | ≤ 100 | Cc1nc2c(F)c(-c3cccc(Cl)c3Cl)c(CCC#N)cc2c2c1cc([C@H]1C[C@H](OCc3cccnc3)CN1C(=O)C1CC1)n2[C@H]1[C@H]2CN[C@@H]1C2 [Example 95]
26 | 100 to 1000 | 100 to 1000 | COc1cccnc1O[C@H]1C[C@H](c2cc3c(C)nc4c(F)c(-c5cccc(Cl)c5Cl)c(CCC#N)cc4c3n2[C@H]2[C@H]3CN[C@@H]2C3)N(C(=O)C2CC2)C1 [Example 307]
27 | ≤ 100 | ≤ 100 | Cc1nc2c(F)c(-c3cccc(Cl)c3Cl)c(CCC#N)cc2c2c1cc([C@H]1C[C@H](n3cc(C(F)F)nn3)CN1C(=O)C1CC1)n2[C@H]1[C@H]2CN[C@@H]1C2 [Example 380]
28 | ≤ 100 | ≤ 100 | Cc1ccnc(C)c1CO[C@H]1C[C@H](c2cc3c(C)nc4c(F)c(-c5cccc(Cl)c5Cl)c(CCC#N)cc4c3n2[C@H]2[C@H]3CN[C@@H]2C3)N(C(=O)C2CC2)C1 [Example 125]
29 | ≤ 100 | ≤ 100 | Cc1nc2c(F)c(-c3cccc(Cl)c3Cl)c(CCC#N)cc2c2c1cc([C@H]1C[C@H](n3ncc(C#N)n3)CN1C(=O)C1CC1)n2[C@H]1[C@H]2CN[C@@H]1C2 [Example 346]
30 | ≤ 100 | ≤ 100 | COc1ccc(O[C@H]2C[C@H](c3cc4c(C)nc5c(F)c(-c6cccc(Cl)c6Cl)c(CCC#N)cc5c4n3[C@H]3[C@H]4CN[C@@H]3C4)N(C(=O)C3CC3)C2)cn1 [Example 301]
31 | ≤ 100 | ≤ 100 | Cc1nc2c(F)c(-c3cccc(Cl)c3Cl)c(CCC#N)cc2c2c1cc([C@H]1C[C@H](OCc3cccc(C(=O)O)c3)CN1C(=O)C1CC1)n2[C@H]1[C@H]2CN[C@@H]1C2 [Example 165]
32 | ≤ 100 | ≤ 100 | CC(O)c1nc2c(F)c(-c3cccc(Cl)c3Cl)c(CCC#N)cc2c2c1cc([C@H]1C[C@H](OCC3(C#N)CC3)CN1C(=O)C1CC1)n2[C@H]1[C@H]2CN[C@@H]1C2 (some centres unmarked) [Example 404]
33 | 100 to 1000 | ≤ 100 | N#CCCc1cc2c(nc(C3=CCS(=O)(=O)CC3)c3cc([C@H]4C[C@H](OCc5c(F)cccc5F)CN4C(=O)C4CC4)n([C@H]4[C@H]5CN[C@@H]4C5)c32)c(F)c1-c1cccc(Cl)c1Cl [Example 240]
34 | ≤ 100 | ≤ 100 | Cc1nc2c(F)c(-c3cccc(Cl)c3Cl)c(CCC#N)cc2c2c1cc([C@H]1C[C@H](Oc3ccc(=O)n(C)c3)CN1C(=O)C1CC1)n2[C@H]1[C@H]2CN[C@@H]1C2 [Example 420]
35 | ≤ 100 | ≤ 100 | Cc1nc2c(F)c(-c3cccc(Cl)c3Cl)c(CCC#N)cc2c2c1cc([C@H]1C[C@H](n3nnc(-c4ccncc4)n3)CN1C(=O)C1CC1)n2[C@H]1[C@H]2CN[C@@H]1C2 (atropisomer, axis not shown) [Example 437]
36 | ≤ 100 | ≤ 100 | Cc1nc2c(F)c(-c3cccc(Cl)c3Cl)c(CCC#N)cc2c2c1cc([C@H]1C[C@H](OCc3ccn(C(F)(F)F)n3)CN1C(=O)C1(C)CC1)n2[C@H]1[C@H]2CN[C@@H]1C2 [Example 310]
37 | ≤ 100 | ≤ 100 | Cc1nc2c(F)c(-c3cccc(Cl)c3Cl)c(CCC#N)cc2c2c1cc([C@H]1C[C@H](Oc3cccc(C(=O)N4CCOCC4)c3)CN1C(=O)C1CC1)n2[C@H]1[C@H]2CN[C@@H]1C2 [Example 222]
38 | ≤ 100 | ≤ 100 | Cc1nc2c(F)c(-c3cccc(Cl)c3Cl)c(CCC#N)cc2c2c1cc([C@H]1C[C@H](OCc3ccc(F)cc3)CN1C(=O)C1CC1)n2[C@H]1[C@H]2CN[C@@H]1C2 [Example 251]
39 | ≤ 100 | ≤ 100 | Cc1nc2c(F)c(-c3cccc(Cl)c3Cl)c(CCC#N)cc2c2c1cc([C@H]1C[C@H](Oc3cnn(C)c3)CN1C(=O)C1CC1)n2[C@H]1[C@H]2CN[C@@H]1C2 [Example 135]
40 | ≤ 100 | ≤ 100 | CC(C)(O)c1ccc(-c2nc3c(F)c(-c4cccc(Cl)c4Cl)c(CCC#N)cc3c3c2cc([C@H]2C[C@H](OCc4c(F)cccc4F)CN2C(=O)C2CC2)n3[C@H]2[C@H]3CN[C@@H]2C3)cn1 [Example 158]
